In one data set the target is TDO2 (Homo sapiens, UniProt P48775). Conditions: cited from earlier work.
Another data set concerns tumors. Put plainly: Response to nivolumab monotherapy (CheckMate trials) by TDO2 expression. It is filed as in vivo, human. To be noted: immuno-oncology naïve patients. As to the method: TDO2 expression was determined by median. All tumors are […] from the biomarker cohort (Clinical Trial No. NCT02658890). Nivolumab monotherapy data is from CheckMate trials. NE=not evaluable; PD=progressive disease; PR=partial response; SCCHN=squamous cell carcinoma of the head and neck; SD=stable disease; TDO2=tryptophan 2,3-dioxygenase 2.
Therefore, the association between TDO2 expression and clinical response was evaluated. High or low TDO2 expression levels were determined by the median. Based on the objective response rate, 26% of patients with low TDO2 expression responded to treatment while only 13% of patients with high TDO2 expression responded to treatment (TABLE 4).

The conditions of data set [1]: monotherapy, every two weeks; MTD not reached; cited from earlier work.

TDO2, sequence (P48775 whole entry): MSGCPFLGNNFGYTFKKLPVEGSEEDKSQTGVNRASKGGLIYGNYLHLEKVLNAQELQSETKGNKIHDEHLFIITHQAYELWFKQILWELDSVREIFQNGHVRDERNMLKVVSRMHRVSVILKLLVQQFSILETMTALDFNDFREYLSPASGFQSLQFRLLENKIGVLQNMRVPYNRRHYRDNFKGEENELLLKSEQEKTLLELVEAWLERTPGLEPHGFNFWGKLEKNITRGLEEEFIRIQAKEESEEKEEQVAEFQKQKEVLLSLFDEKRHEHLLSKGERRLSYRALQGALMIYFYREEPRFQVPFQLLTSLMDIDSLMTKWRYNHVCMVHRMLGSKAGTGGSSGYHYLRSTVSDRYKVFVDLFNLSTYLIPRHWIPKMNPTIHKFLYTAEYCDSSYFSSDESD

Take `C[C@@H](C(=O)Nc1ccc(Cl)cc1)[C@H]1CC[C@@H](c2ccnc3ccc(F)cc32)CC1` [linrodostat, (2R)—N-(4-chlorophenyl)-2-(cis-4-(6-fluoroquinolin-4-yl)cyclohexyl)propanamide]: at TDO2, the “inhibition of TDO2 enzymatic activity” value was “not TDO2 enzymatic activity”. Take nivolumab: the “association between TDO2 expression and response” value in the data set with tumors is reported as “No association”. In addition, in data set [1], the “maximum tolerated dose (MTD)” value is given as greater than 10 mg/kg.

(Values after patent US20220339249A1, “COMPOSITE BIOMARKER FOR CANCER THERAPY” (Bristol-Myers Squibb Company, priority 2019, published 2022).)
